This note sets out measurements from US20260176295A1, “PHOSPHONATE CONJUGATES AND USES THEREOF” (The Translational Genomics Research Institute, priority 2019, published 2026).

Each structure is given as a SMILES string. Like-named read-outs stand apart in the source and are kept apart here.

The target of one series is T1, RON Kinase Enzyme (Homo sapiens, UniProt Q04912).
T1 construct: purchased Promega V3921
The series can be described thus: Kinase ADP-Glo inhibition assay. It is filed as biochemical. To be noted: 25 μM ATP. The method, then: • Assay Buffer • 40 mM Tris-HCl pH7.5, 20 mM MgCl2, 0.1 mg/mL BSA • RON Kinase Enzyme System (Promega #: V3921) • Axltide Substrate • RON Kinase Enzyme • ADP-Glo™ Assay (Promega #: V9101) • ATP, 10 mM • ADP-Glo™ Reagent • Kinase Detection Reagent • 384-well white assay plates
A ten point serial dilution of compound was prepared at 5× concentration in assay buffer with the final assay concentrations starting at 30 μM, 10 μM, 3 μM, 1 μM . . . 0 μM. Enzyme, substrate, and ATP were used at 25 ng, 200 ng and 25 μM, respectively. The assay plate was set up by mixing the components in a total reaction volume of 10 μL per well. The plate was centrifuged gently for 10 seconds and incubated at room temperature (RT) for 60 minutes in the dark. The ADP-Glo Reagent and kinase detection reagent were added and incubated as recommended. The reaction was quantified by measuring luminescence on the Perkin Elmer Envision plate reader. Data was analyzed using Graphpad Prism 7 software.
A general note: In ADP-Glo the light output rises with the ADP produced.

A further series is described as follows: in vivo. It is filed as in vivo. The settings on record: 2 mg/kg single intravenous bolus; for AUC(0-inf) / AUC(0-t) / C0 / clearance / half-life / Vd / Kp: mouse; for Vd: read-out: VSS; for Kp: read-out: bone to plasma ratios (AUClast). The method, then:
For extended time points (>24 hrs), BID dosing was done 8 hr apart.
The study was performed using sparse design to obtain composite profile (n=3/time point) as summarized in the table1. Blood and whole bone with marrow were collected at predetermined time points. At each time point, about 120 μL of blood was collected by retro-orbital sinus puncture into a labeled microfuge tube containing 200 mM K2EDTA solution (20 μL per mL of blood). The blood samples were processed within 30 minutes to obtain the plasma samples. At respective time points, blood samples were collected and animals were euthanized to harvest whole femur bone (bone with marrow). All plasma and bone with marrow samples were stored at −80° C.
The plasma and bone with bone marrow homogenate samples were analyzed using a fit-for purpose LC-MS/MS method with a lower limit of quantification (LLOQ) of 1.00 ng/ml (plasma) and 11.0 ng/g (bone). In some instances, bone marrow was separated from bone and analyzed independently. The pharmacokinetic parameters of the drugs were calculated using the non-compartmental analysis tool of validated Phoenix® WinNonlin® software (version 8.0).

In a further series the target is RON/MST1R (Homo sapiens, UniProt Q04912). Description: Ron tyrosine kinase inhibition assay (10 dose IC50 mode, 10 μM ATP). It is filed as biochemical. To be noted: read-out: Compound IC50. The method, then:
Compounds were tested in 10 dose IC50 mode with 3-fold serial dilution starting at 100 μM. […] Reactions were carried out at 10 μM ATP. Data pages include raw data, % Enzyme activity (relative to DMSO controls) and curve fits. Curve fits were performed where the enzyme activities at the highest concentration of compounds were less than 65%.
IC50 values may be determined using GraphPad Prism 5 software. The data may be entered as an X-Y plot into the software as percent inhibition for each concentration of the drug. The concentration values of the drug may be log transformed and the nonlinear regression may be carried out using the “sigmoidal dose-response (variable slope)” option within the GraphPad software to model the data and calculate IC50 values. The IC50 values reported are the concentration of drug at which 50% inhibition was reached.

Where [1] appears, read: in vivo, Plasma, male Swiss Albino mice.
Setting [2] is: male, Swiss Albino, in vivo, iv, 2 mg/kg, Bone with Bone marrow.
Where [3] appears, read: male, Swiss Albino, in vivo, iv, 2 mg/kg, Plasma.

T1 sequence (Q04912 25-1400): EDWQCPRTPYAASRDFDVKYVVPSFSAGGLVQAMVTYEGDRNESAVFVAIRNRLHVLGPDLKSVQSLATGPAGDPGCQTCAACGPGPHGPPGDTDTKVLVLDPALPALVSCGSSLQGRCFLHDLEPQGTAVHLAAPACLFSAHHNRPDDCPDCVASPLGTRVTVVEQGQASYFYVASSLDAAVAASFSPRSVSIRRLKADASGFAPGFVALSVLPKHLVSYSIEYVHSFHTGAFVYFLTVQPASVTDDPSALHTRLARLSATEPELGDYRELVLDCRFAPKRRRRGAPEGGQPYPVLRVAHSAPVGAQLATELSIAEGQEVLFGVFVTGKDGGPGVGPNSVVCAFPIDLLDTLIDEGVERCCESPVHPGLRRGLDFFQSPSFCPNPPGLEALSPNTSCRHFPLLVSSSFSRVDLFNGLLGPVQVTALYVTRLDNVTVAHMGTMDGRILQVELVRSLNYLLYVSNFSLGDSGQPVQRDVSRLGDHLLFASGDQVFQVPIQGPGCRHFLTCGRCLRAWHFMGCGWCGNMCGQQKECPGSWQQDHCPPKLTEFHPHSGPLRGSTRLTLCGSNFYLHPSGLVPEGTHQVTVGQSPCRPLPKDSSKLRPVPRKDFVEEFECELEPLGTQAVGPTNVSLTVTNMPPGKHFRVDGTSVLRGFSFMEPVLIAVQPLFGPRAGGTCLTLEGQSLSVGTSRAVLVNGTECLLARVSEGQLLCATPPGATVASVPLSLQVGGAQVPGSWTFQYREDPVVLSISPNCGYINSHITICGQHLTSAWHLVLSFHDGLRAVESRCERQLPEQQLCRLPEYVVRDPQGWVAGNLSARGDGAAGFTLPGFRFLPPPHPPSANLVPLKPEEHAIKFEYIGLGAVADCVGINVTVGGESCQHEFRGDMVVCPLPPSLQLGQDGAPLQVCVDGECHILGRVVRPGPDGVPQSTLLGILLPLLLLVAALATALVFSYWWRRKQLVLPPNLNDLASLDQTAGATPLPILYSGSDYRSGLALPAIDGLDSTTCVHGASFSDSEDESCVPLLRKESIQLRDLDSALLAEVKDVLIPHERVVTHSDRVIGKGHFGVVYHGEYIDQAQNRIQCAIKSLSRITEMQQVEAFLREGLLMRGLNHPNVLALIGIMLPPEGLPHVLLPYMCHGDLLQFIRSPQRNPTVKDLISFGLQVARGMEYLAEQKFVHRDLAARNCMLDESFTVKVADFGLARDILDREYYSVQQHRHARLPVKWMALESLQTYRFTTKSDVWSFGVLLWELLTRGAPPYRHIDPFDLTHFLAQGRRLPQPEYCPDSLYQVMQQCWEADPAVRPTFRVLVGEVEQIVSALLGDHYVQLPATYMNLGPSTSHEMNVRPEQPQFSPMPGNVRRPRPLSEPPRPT
Sequence of RON/MST1R (Q04912 25-1400): as above

As to `CCOc1ccn(-c2ccc(F)c(COP(=O)(O)O)c2)c(=O)c1C(=O)Nc1ccc(Oc2ccnc(N)c2Cl)c(F)c1` [Compound 13, sodium 5-(3-((4-((2-amino-3-chloropyridin-4-yl)oxy)-3-fluorophenyl)carbamoyl)-4-ethoxy-2-oxopyridin-1(2H)-yl)-2-fluorobenzyl phosphate], the IC50 (usually the concentration needed to halve the response being measured) against RON Kinase Enzyme amounted to 2430 nM.

Turning to `CCOc1ccn(-c2ccc(F)c(OP(=O)(O)O)c2)c(=O)c1C(=O)Nc1ccc(Oc2ccnc(N)c2Cl)c(F)c1` [Compound 12, sodium 5-(3-((4-((2-amino-3-chloropyridin-4-yl)oxy)-3-fluorophenyl)carbamoyl)-4-ethoxy-2-oxopyridin-1(2H)-yl)-2-fluorophenyl phosphate], half-maximal inhibition on RON Kinase Enzyme (IC50) required 58 nM. In addition, in “in vivo” (setting [1]), the AUC(0-inf) (as a rule, total exposure, with the tail of the curve extrapolated) worked out at 963 ng·h/mL; the AUC(0-t) (in general, exposure summed from dosing to a finite time, without extrapolation to infinity) came to 959 ng·h/mL; the C0 is 4680 ng/mL; the clearance – broadly, the rate of elimination divided by the concentration – is 34.6 mL/min/kg. For the same compound, in the series “in vivo” (setting [1]), the half-life (usually the time in which the quantity being followed falls by half) was 1.17 h and the Vd amounted to 0.879 L/kg.

In turn, `Nc1nccc(Oc2ccc(NC(=O)c3c(OCP(=O)([O-])[O-])ccn(-c4ccc(F)cc4)c3=O)cc2F)c1Cl.[Na+].[Na+]` [Compound 10, (((3-((4-((2-amino-3-chloropyridin-4-yl)oxy)-3-fluorophenyl)carbamoyl)-1-(4-fluorophenyl)-2-oxo-1,2-dihydropyridin-4-yl)oxy)methyl)phosphonate] displayed an IC50 at RON Kinase Enzyme of 547 nM. Besides, the accumulation in bone result in the series “in vivo” is on record as “accumulated in the bone”. The same compound showed an AUCinf in “in vivo” (Bone with Bone marrow) of 2920 h*ng · h/mL. Moreover, in “in vivo” (setting [2]), the AUC(0-t) stood at 2420 ng·h/mL, the clearance stood at 11.4 mL/min/kg, the half-life was 1.61 h and the Vd was 1.5 L/kg. In “in vivo” (setting [3]), the AUC(0-t) was determined as 9830 ng·h/mL, the clearance is 3.36 mL/min/kg, the half-life was 0.987 h and the Vd is 0.179 L/kg. For the same compound, the Kp in the series “in vivo” (in vivo) was 0.25. Further, in “in vivo” (in vivo, Plasma), the AUC(0-inf) worked out at 9910 ng·h/mL and the C0 came out at 16000 ng/mL.

Turning to `CCOc1ccn(-c2ccc(F)cc2)c(=O)c1C(=O)Nc1ccc(Oc2ccnc(NC(P(=O)(O)O)P(=O)(O)O)c2Cl)c(F)c1` [Compound 1, (((3-chloro-4-(4-(4-ethoxy-1-(4-fluorophenyl)-2-oxo-1,2-dihydropyridine-3-carboxamido)-2-fluorophenoxy)pyridin-2-yl)amino)methylene)diphosphonic acid], the IC50 against RON Kinase Enzyme and at RON/MST1R was 13400 nM each time.

The compound `CCOc1ccn(-c2ccc(F)cc2)c(=O)c1C(=O)Nc1ccc(Oc2ccnc(NC(P(=O)(OCC)OCC)P(=O)(OCC)OCC)c2Cl)c(F)c1` [Compound 9, tetraethyl (((3-chloro-4-(4-(4-ethoxy-1-(4-fluorophenyl)-2-oxo-1,2-dihydropyridine-3-carboxamido)-2-fluorophenoxy)pyridin-2-yl)amino)methylene)bis(phosphonate)] showed an IC50 against RON Kinase Enzyme of 33800 nM.

Compound `CCOc1ccn(-c2ccc(F)c(OCCC(P(=O)(O)O)P(=O)(O)O)c2)c(=O)c1C(=O)Nc1ccc(Oc2ccnc(N)c2Cl)c(F)c1` [Compound 11, sodium (3-(5-(3-((4-((2-amino-3-chloropyridin-4-yl)oxy)-3-fluorophenyl)carbamoyl)-4-ethoxy-2-oxopyridin-1(2H)-yl)-2-fluorophenoxy)propane-1,1-diyl)bis(phosphonate)] displayed an IC50 on RON Kinase Enzyme of 1270 nM.

In the case of `CCOc1ccn(-c2ccc(F)cc2)c(=O)c1C(=O)Nc1ccc(Oc2ccnc(N)c2Cl)c(F)c1` [BMS-777607, N-(4-((2-amino-3-chloropyridin-4-yl)oxy)-3-fluorophenyl)-4-ethoxy-1-(4-fluorophenyl)-2-oxo-1,2-dihydropyridine-3-carboxamide, reference compound], half-maximal inhibition against RON Kinase Enzyme (IC50) required 18 nM. Besides, at RON/MST1R, the IC50 came to 17.2 nM. In “in vivo” (Plasma), this compound displayed an AUC(0-inf) of 1690 ng·h/mL, an AUC(0-t) of 1690 ng·h/mL, a C0 of 3610 ng/mL and a clearance of 19.7 mL/min/kg. Also, in “in vivo” (Plasma), the half-life was 3.42 h and the Vd came out at 1.42 L/kg. In “in vivo” (bone (without marrow), Bone only), this compound gave an AUC(0-t) of 296 ng·h/mL. Further, in the series “in vivo” (bone / plasma), the Kp was determined as 0.17.
